IC50 data for 19 compounds are collected here from US10479780B2, “Aminopyrazole derivatives” (Chugai Seiyaku Kabushiki Kaisha, priority 2015, dated 2019).

Common to all, as to type: biochemical
The target in one experiment is T1, human Src enzyme (Homo sapiens, UniProt P12931).
T1 construct: purchased Carna Biosciences, Inc. 08-173
As to the kind of experiment: Src enzyme inhibitory activity (time-resolved fluorometry, biotinylated peptide phosphorylation). The settings on record: read-out: SRC_IC50. In short, it runs like this:
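Compounds were tested for blocking tyrosine phosphorylation of a biotinylated peptide substrate by recombinant human Src. Phosphorylated product was quantified by time-resolved fluorometry using europium cryptate and XL665 conjugates, and IC50 was calculated against the compound-free control.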

A further experiment has as its target T2, human Yes1 enzyme (Homo sapiens, UniProt P07947).
T2 construct: made in house
Briefly: Yes1 enzyme inhibitory activity (time-resolved fluorometry, biotinylated peptide phosphorylation). The settings on record: read-out: YES_IC50. An outline of the steps:
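Inhibition was expressed against a compound-free control to give IC50, using TR-FRET read-out (Eu-cryptate anti-pTyr antibody, streptavidin-XL665).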

The target of another experiment is T3, human Lck enzyme (Homo sapiens, UniProt P06239).
T3 construct: purchased Carna Biosciences, Inc. 08-170
As to the kind of experiment: Lck enzyme inhibitory activity (time-resolved fluorometry, biotinylated peptide phosphorylation). The settings on record: read-out: LCK_IC50. An outline of the steps:
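Readout pairs a europium cryptate-labelled anti-phosphotyrosine antibody with XL665-streptavidin, measured by time-resolved fluorescence. IC50 derived from percent inhibition against untreated controls.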

The mark [1] stands for this setting: biotinylated peptide phosphorylation.

Like-named read-outs stand apart in the source and are kept apart here.

T3 sequence (P06239 whole entry): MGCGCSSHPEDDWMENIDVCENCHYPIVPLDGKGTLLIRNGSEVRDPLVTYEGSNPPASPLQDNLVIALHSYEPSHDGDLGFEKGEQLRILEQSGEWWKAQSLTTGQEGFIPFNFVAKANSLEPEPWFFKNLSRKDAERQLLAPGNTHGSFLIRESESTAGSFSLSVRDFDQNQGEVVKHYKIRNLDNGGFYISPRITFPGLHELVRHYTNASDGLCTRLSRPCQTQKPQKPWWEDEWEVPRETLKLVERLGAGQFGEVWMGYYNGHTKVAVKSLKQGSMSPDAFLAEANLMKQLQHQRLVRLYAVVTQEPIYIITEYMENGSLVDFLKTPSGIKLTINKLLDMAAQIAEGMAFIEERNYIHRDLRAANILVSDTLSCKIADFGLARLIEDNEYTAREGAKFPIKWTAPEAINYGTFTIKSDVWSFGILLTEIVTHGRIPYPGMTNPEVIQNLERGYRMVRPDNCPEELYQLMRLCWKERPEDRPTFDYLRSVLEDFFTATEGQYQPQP
T2 sequence (P07947 whole entry): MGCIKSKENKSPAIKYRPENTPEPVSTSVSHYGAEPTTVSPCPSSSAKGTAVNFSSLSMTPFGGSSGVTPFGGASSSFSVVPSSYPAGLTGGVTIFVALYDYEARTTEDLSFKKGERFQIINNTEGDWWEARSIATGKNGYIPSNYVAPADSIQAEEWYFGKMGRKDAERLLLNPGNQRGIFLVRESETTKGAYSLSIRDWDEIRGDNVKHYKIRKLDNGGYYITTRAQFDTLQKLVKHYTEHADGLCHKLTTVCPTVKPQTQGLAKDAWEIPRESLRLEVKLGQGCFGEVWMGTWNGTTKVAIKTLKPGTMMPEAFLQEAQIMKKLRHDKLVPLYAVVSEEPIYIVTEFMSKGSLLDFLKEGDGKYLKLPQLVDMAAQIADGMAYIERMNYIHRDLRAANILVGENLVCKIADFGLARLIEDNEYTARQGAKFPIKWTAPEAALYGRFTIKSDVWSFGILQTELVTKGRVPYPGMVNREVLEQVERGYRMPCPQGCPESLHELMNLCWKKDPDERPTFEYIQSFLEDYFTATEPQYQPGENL
T1 sequence (P12931 whole entry): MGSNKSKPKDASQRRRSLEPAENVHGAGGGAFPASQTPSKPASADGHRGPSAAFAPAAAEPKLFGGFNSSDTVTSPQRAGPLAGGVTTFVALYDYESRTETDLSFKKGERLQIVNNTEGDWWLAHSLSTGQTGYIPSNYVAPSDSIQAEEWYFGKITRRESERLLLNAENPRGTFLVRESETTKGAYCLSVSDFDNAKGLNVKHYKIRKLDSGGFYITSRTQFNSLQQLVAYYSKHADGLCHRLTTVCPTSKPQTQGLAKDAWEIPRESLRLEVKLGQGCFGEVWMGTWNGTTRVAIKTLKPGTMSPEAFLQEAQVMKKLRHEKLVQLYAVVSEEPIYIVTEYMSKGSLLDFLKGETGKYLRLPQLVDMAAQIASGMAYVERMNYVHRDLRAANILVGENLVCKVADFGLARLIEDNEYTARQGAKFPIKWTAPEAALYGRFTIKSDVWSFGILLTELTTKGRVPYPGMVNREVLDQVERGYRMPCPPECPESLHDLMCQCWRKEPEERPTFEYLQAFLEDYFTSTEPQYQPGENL

Turning to `Cc1cc2cc(C(=O)c3cnn(-c4cnc(Oc5c(F)cccc5F)cc4C)c3N)[nH]c2cc1N1C(=O)NC2(CCCCC2)C1=O` [Example 5-1-316, 3-[2-[5-amino-1-[6-(2,6-difluorophenoxy)-4-methylpyridin-3-yl]pyrazole-4-carbonyl]-5-methyl-1H-indol-6-yl]-1,3-diazaspiro[4.5] decane-2,4-dione], the IC50 at human Src enzyme was 0.17 µM; at human Yes1 enzyme, 0.0062 µM; at human Lck enzyme, 0.029 µM.

In the case of `Cc1cc(Oc2c(F)cccc2F)ncc1-n1ncc(C(=O)c2cc3cc(OC4CCN(C(C)C)CC4)c(N4C(=O)NC(C)(C)C4=O)cc3[nH]2)c1N` [Example 5-1-188, 3-[2-[5-amino-1-[6-(2,6-difluorophenoxy)-4-methylpyridin-3-yl]pyrazole-4-carbonyl]-5-(1-propan-2-ylpiperidin-4-yl)oxy-1H-indol-6-yl]-5,5-dimethylimidazolidine-2,4-dione], the results for the IC50 at human Src enzyme, on human Yes1 enzyme and on human Lck enzyme were 0.0046 µM, 0.0003 µM and 0.0012 µM, respectively.

For `Cc1cc(Oc2ccccc2F)ccc1-n1ncc(C(=O)c2cc3cc(OC(F)F)c(N4CC5(CCCC5)NS4(=O)=O)cc3[nH]2)c1N` [Example 5-1-423, [5-amino-1-[4-(2-fluorophenoxy)-2-methylphenyl]pyrazol-4-yl]-[5-(difluoromethoxy)-6-(2,2-dioxo-2λ6-thia-1,3-diazaspiro[4.4]nonan-3-yl)-1H-indol-2-yl]methanone], the figures for the IC50 at human Src enzyme (setting [1]), on human Yes1 enzyme (setting [1]) and at human Lck enzyme (setting [1]) were 0.19 µM, 0.004 µM and 0.061 µM, respectively.

On to `Cc1cc(Oc2c(F)cccc2F)ncc1-n1ncc(C(=O)c2cc3cc(OCC(F)F)c(N4CCCC4=O)cc3[nH]2)c1N` [Example 4-21-001, 1-{2-{5-amino-1-[6-(2,6-difluorophenoxy)-4-methylpyridin-3-yl]pyrazole-4-carbonyl}-5-(2,2-difluoroethoxy)-1H-indol-6-yl}pyrrolidin-2-one], for which the IC50 turned out to be 0.013 µM on human Src enzyme (setting [1]), 0.0037 µM at human Yes1 enzyme (setting [1]) and 0.0062 µM at human Lck enzyme (setting [1]).

As for `Cc1cc(-n2ncc(C(=O)c3cc4cc(OC5CCN(C(C)C)CC5)c(N)cc4[nH]3)c2N)ccc1Oc1ccccc1F` [Example 5-1-163, (5-amino-1-(4-(2-fluorophenoxy)-3-methylphenyl)-1H-pyrazol-4-yl)(6-amino-5-((1-isopropylpiperidin-4-yl)oxy)-1H-indol-2-yl)methanone], the IC50 on human Src enzyme stood at 0.059 µM; at human Yes1 enzyme it was 0.00064 µM; on human Lck enzyme it was 0.007 µM.

As to `COc1ccccc1S(=O)(=O)Nc1cc2[nH]c(C(=O)c3cnn(-c4cnc(Oc5c(F)cccc5F)cc4C)c3N)cc2cc1OCC(F)F` [Example 5-1-329, N-[2-[5-amino-1-[6-(2,6-difluorophenoxy)-4-methylpyridin-3-yl]pyrazole-4-carbonyl]-5-(2,2-difluoroethoxy)-1H-indol-6-yl]-2-methoxybenzenesulfonamide], the IC50 is 0.72 µM at human Src enzyme, 0.009 µM on human Yes1 enzyme and 0.15 µM at human Lck enzyme.

In the case of `Cc1cc2cc(C(=O)c3cnn(-c4cnc(Oc5ccccc5F)cc4C)c3N)[nH]c2cc1NS(=O)(=O)c1cccc(C#N)n1` [Example 5-1-479, N-[2-[5-amino-1-[6-(2-fluorophenoxy)-4-methylpyridin-3-yl]pyrazole-4-carbonyl]-5-methyl-1H-indol-6-yl]-6-cyanopyridine-2-sulfonamide], the IC50 at human Src enzyme (setting [1]) worked out at 0.77 µM; at human Yes1 enzyme (setting [1]) it was 0.0033 µM; at human Lck enzyme (setting [1]), 0.17 µM.

As to `Cc1cc(Oc2ccccc2F)ccc1-n1ncc(C(=O)c2cc3cc(OC(F)F)c(NS(=O)(=O)C4CC4)cc3[nH]2)c1N` [Example 4-24-001, N-[2-[5-amino-1-[4-(2-fluorophenoxy)-2-methylphenyl]pyrazole-4-carbonyl]-5-(difluoromethoxy)-1H-indol-6-yl]cyclopropanesulfonamide], the values for the IC50 at human Src enzyme (setting [1]), at human Yes1 enzyme (setting [1]) and on human Lck enzyme (setting [1]) were 0.11 µM, 0.0036 µM and 0.036 µM, respectively.

As to `Cc1cc(Oc2ccccc2F)ccc1-n1ncc(C(=O)c2cc3cc(N4CCOCC4)c(-n4c(C)cc(=O)[nH]c4=O)cc3[nH]2)c1N` [Example 5-1-116, 1-[2-[5-amino-1-[4-(2-fluorophenoxy)-2-methylphenyl]pyrazole-4-carbonyl]-5-morpholin-4-yl-1H-indol-6-yl]-6-methylpyrimidine-2,4-dione], the values for the IC50 on human Src enzyme, on human Yes1 enzyme and on human Lck enzyme were 0.0052 µM, 0.00051 µM and 0.0016 µM, respectively.

With `CC(=O)N1CCC(c2cc3[nH]c(C(=O)c4cnn(-c5cnc(Oc6c(F)cccc6F)cc5C)c4N)cc3cc2OCC(F)F)CC1` [Example 4-17-001, 1-{4-{2-{5-amino-1-{6-(2,6-difluorophenoxy)-4-methylpyridin-3-yl}pyrazole-4-carbonyl}-5-(2,2-difluoroethoxy)-1H-indol-6-yl}piperidin-1-yl}ethanone], the IC50 was 0.026 µM at human Src enzyme (setting [1]), 0.0045 µM at human Yes1 enzyme (setting [1]) and 0.012 µM at human Lck enzyme (setting [1]).

`Cc1cc(Oc2ccccc2F)ncc1-n1ncc(C(=O)c2cc3cc(C4CC4)c(NS(=O)(=O)CCCF)cc3[nH]2)c1N` [Example 5-1-428, N-[2-[5-amino-1-[6-(2-fluorophenoxy)-4-methylpyridin-3-yl]pyrazole-4-carbonyl]-5-cyolopropyl-1H-indol-6-yl]-3-fluoropropane-1-sulfonamide]: the values for the IC50 on human Src enzyme (setting [1]), on human Yes1 enzyme (setting [1]) and on human Lck enzyme (setting [1]) were 0.17 µM, 0.0031 µM and 0.046 µM, respectively.

Turning to `Cc1cc(-n2ncc(C(=O)c3cc4cc(OC5CCN(C6CCC6)CC5)c(Cl)cc4[nH]3)c2N)ccc1Oc1ccccc1F` [Example 5-1-235, [5-amino-1-[4-(2-fluorophenoxy)-3-methylphenyl]pyrazol-4-yl]-[6-chloro-5-(1-cyclobutylpiperidin-4-yl)oxy-1H-indol-2-yl] methanone], the figures for the IC50 at human Src enzyme, on human Yes1 enzyme and at human Lck enzyme were 0.43 µM, 0.0029 µM and 0.085 µM, respectively.

As for `Cc1cc(Oc2c(F)cccc2F)ncc1-n1ncc(C(=O)c2cc3cc(OC4CCN(C5CCCC5)CC4)c(Br)cc3[nH]2)c1N` [Example 5-1-223, [5-amino-1-[6-(2,6-difluorophenoxy)-4-methylpyridin-3-yl]pyrazol-4-yl]-[6-bromo-5-(1-cyclopentylpiperidin-4-yl)oxy-1H-indol-2-yl] methanone], the IC50 worked out at 0.0074 µM at human Src enzyme, 0.0015 µM on human Yes1 enzyme and 0.0072 µM on human Lck enzyme.

For the compound `Cc1cc(Oc2ccccc2F)ccc1-n1ncc(C(=O)c2cc3cc(OCC(F)F)c(N4C(=O)[C@@H]5C[C@@H](NC(=O)OCC6c7ccccc7-c7ccccc76)CN5C4=O)cc3[nH]2)c1N` [Example 5-1-270, 9H-fluoren-9-ylmethyl N-[(6R,7aS)-2-[2-[5-amino-1-[4-(2-fluorophenoxy)-2-methylphenyl]pyrazole-4-carbonyl]-5-(2,2-difluoroethoxy)-1H-indol-6-yl]-1,3-dioxo-5,6,7,7a-tetrahydropyrrolo[1,2-c]imidazol-6-yl] carbamate], the IC50 at human Src enzyme is 0.13 µM; on human Yes1 enzyme it was 0.0047 µM; on human Lck enzyme, 0.028 µM.

Regarding `Nc1c(C(=O)c2cc3cc(F)c(NS(=O)(=O)C4CC4)cc3[nH]2)cnn1-c1c(Cl)cc(Oc2ccccc2F)cc1Cl` [Example 5-1-025, N-[2-[5-amino-1-[2,6-dichloro-4-(2-fluorophenoxy)phenyl]pyrazole-4-carbonyl]-5-fluoro-1H-indol-6-yl]cyclopropanesulfonamide], the IC50 worked out at 0.73 µM on human Src enzyme, 0.02 µM at human Yes1 enzyme and 0.27 µM on human Lck enzyme.

For `Cc1cc(Oc2ccccc2F)ccc1-n1ncc(C(=O)c2cc3cc(C4CC4)c(NS(=O)(=O)CCCF)cc3[nH]2)c1N` [Example 5-1-426, N-[2-[5-amino-1-[4-(2-fluorophenoxy)-2-methylphenyl]pyrazole-4-carbonyl]-5-cyclopropyl-1H-indol-6-yl]-3-fluoropropane-1-sulfonamide], the IC50 at human Src enzyme (setting [1]) was 0.095 µM; on human Yes1 enzyme (setting [1]), 0.002 µM; on human Lck enzyme (setting [1]), 0.036 µM.

For `Cc1cc2cc(C(=O)c3cnn(-c4c(C)cc(Oc5ccccc5F)cc4F)c3N)[nH]c2cc1NS(=O)(=O)CC(=O)NC(C)C` [Example 5-1-089, 2-[[2-[5-amino-1-[2-fluoro-4-(2-fluorophenoxy)-6-methylphenyl]pyrazole-4-carbonyl]-5-methyl-1H-indol-6-yl]sulfamoyl]-N-propan-2-ylacetamide], the IC50 on human Src enzyme stood at 0.077 µM; at human Yes1 enzyme, 0.0062 µM; at human Lck enzyme it was 0.0089 µM.

For `Cc1cc(-n2ncc(C(=O)c3cc4cc(OC[C@H](O)CO)c(NS(C)(=O)=O)cc4[nH]3)c2N)ccc1Oc1ccccc1F` [Example 5-1-242, (R)—N-(2-(5-amino-1-(4-(2-fluorophenoxy)-3-methylphenyl)-1H-pyrazole-4-carbonyl)-5-(2,3-dihydroxypropoxy)-1H-indol-6-yl)methanesulfonamide], the figures for the IC50 at human Src enzyme, on human Yes1 enzyme and on human Lck enzyme were 0.5 µM, 0.0019 µM and 0.16 µM, respectively.

Turning to `Cc1cc(Oc2ccccc2F)ccc1-n1ncc(C(=O)c2cc3cc(N4CCOCC4)c(N4CCC(N5CCOCC5)CC4)cc3[nH]2)c1N` [Example 5-1-124, [5-amino-1-[4-(2-fluorophenoxy)-2-methylphenyl]pyrazol-4-yl]-[5-morpholin-4-yl-6-(4-morpholin-4-ylpiperidin-1-yl)-1H-indol-2-yl]methanone], the IC50 on human Src enzyme was 0.07 µM; on human Yes1 enzyme it was 0.00099 µM; on human Lck enzyme it was 0.01 µM.
